Data published in publication PMC10704561, “Multi-Photon-Sensitive Chromophore for the Photorelease of Biologically Active Phenols” (ACS Chemical Neuroscience, 2023).
Converted amounts (≈) assume the structure as drawn. Read-outs that look alike come from different tables or passages of the source.

Tests used:
TRPV1 channels = molecular target: T1, TRPV1 channels (Homo sapiens, UniProt Q8NER1); assay: TRPV1 activation on HEK 293 cells, Fluo-4 calcium imaging; format: cell-based
T1 construct: expressed in transfected cells
Procedure: HCT 116 cells were grown in Dulbecco’s […] medium (DMEM) supplemented with 10% fetal bovine serum (FBS), 1% nonessential amino acids (NEAA), and maintained at 37 °C and 5% CO2. HEK 293 cells stably expressing TRPV1 channels were grown as previously described.[62]
HEK 293 cells (stably expressing TRPV1 channels) were plated on a 35 mm glass-bottom dish (previously coated with poly-D-Lysine) a day before the experiment. A mixture of pluronic F-127 (Molecular Probes) and Fluo-4 AM (50 μg, Life Technologies) dissolved in dimethylsulfoxide (DMSO) (50 μL) was added to Hank’s balanced salt solution (HBSS) and sonicated for 5 min to prepare a solution containing a 0.02% final concentration of each. The solution was then loaded onto the cells growing in the 35 mm glass-bottom dish and incubated for 35–45 min in a humidified CO2 incubator (37 °C, 5% CO2). The cells were washed with HBSS (3 × 2 mL each) and subsequently maintained in HBSS during photoactivation experiments.
An Olympus FluoView FV1000MPE confocal microscope was employed to image and record cells plated onto 35 mm glass-bottom 4-well plates. A 488 nm ion laser excited the dopamine and serotonin sensors dLight 1.2 and GRAB5-HT, respectively, and Fluo-4 calcium dye. FluoView 10-ASW version 4.0 (Olympus), ImageJ-Fiji, and DeltaGraph (Red Rock Software) were used for capturing, extracting, and processing the collected data. Photoactivation was conducted with 405 nm (100% laser power, 1PE) or 720 nm (10% laser power, 24 mW, 2PE) light for MeO-CyHQ-O-DA and MeO-CyHQ-O-5HT or 740 nm (20% laser power, 15 mW light) for MeO-CyHQ-O-VNA and MeO-CyHQ-O-EG. Images were captured by using a 60× immersion lens.
Solutions of MeO-CyHQ-O-VNA or MeO-CyHQ-O-EG were added to HEK 293 cells stably expressing TRPV1 channels and loaded with Fluo-4 in a 35 mm glass-bottom dish. An area near a cell was irradiated with a single short pulse of 405 nm laser light while imaging with the 488 nm laser. Similarly, VNA and eugenol were released through 2PE using 740 nm light.

[1] = UV-vis spectra and molar extinction coefficient in KMOPS buffer; format: physicochemical; conditions: 0.1 mM in KMOPS buffer, pH 7.2 (3d, 6c: 10 or 20% CH3CN added)
Procedure: A 100 μM solution of each protected phenol was prepared in KMOPS buffer (20% CH3CN was used as a cosolvent for compounds 3d and 6c). The UV–vis spectra of these solutions were recorded at between 250 and 500 nm. All of the measurements were repeated in triplicate, and the absorbance values were averaged. The Beer–Lambert law, ε = A(cl)^−1, was used for the calculation of ε values at λ = 365 nm, where A is the absorbance value measured at 365 nm, c is the concentration of the sample, and l is the cuvette length (1 cm). See the Supporting Information for the spectra.

[2] = One-photon excitation (1PE) photolysis with 365 nm LED, HPLC quantification; format: physicochemical; conditions: for t90% (time required to consume 90% of the starting material): 1PE 365 nm LED, lamp intensity differs per compound (Table S1)
Procedure: A 0.1 mM solution (3 mL) of each protected phenol in KMOPS buffer (10 or 20% CH3CN was used as a cosolvent for 3d and 6c) was placed in a 3 mL quartz cuvette along with a stirring bar. The solution was irradiated with stirring using a 365 nm LED lamp (Cairn OptoLED Lite). At different time intervals, 80 μL aliquots of the solution were taken out and analyzed by uHPLC (Agilent 1290 Infinity series), monitoring the AUC at 320 nm (Supporting Information, HPLC Data). An external standard calibration method of quantification was used for the calibration of the samples. The experiments were repeated in sets of three. A gradient elution with a flux rate of 0.3 mL/min using a mobile phase comprising A = 0.1% trifluoroacetic acid in water and B = acetonitrile (starting from 5% B to 100% over 10 min and re-equilibrating to 5% B before the next run) was used for the separations. A comparison of the AUC with the calibration curves of the substrates (obtained from known concentration) determined the percentages of the remaining starting materials. The percentages of the remaining starting materials were plotted versus time. The time to 90% of decomposition of the substrate (t90% values) was obtained by fitting a single exponential decay curve to the data using DeltaGraph (Red Rock Software). The following equation was used to calculate the quantum yield (Φu) of each photolysis reaction:[42],[47],[56],[57] Φu = (I σ t90%)^−1, where I is the irradiation intensity (determined by potassium ferrioxalate actinometry and measured in Einstein cm^–2 s^–1),[58] σ is the decadic extinction coefficient (1000 × ε) at 365 nm, and t90% is the time required to consume 90% of the starting material. See Supporting Information Table S1 for the I, σ, and t90% data.

[3] = Spontaneous hydrolysis in the dark; format: physicochemical; conditions: 0.1 mM in KMOPS pH 7.2, dark, 7 days
Procedure: A 0.1 mM solution of each compound was prepared in KMOPS buffer. For compounds 3d and 6c, 20% CH3CN was used as a cosolvent. The solutions were kept in the dark for 7 days, and the percentage of the starting materials was determined by periodic HPLC analysis (Supporting Information, HPLC Data).

[4] = Solubility in KMOPS buffer pH 7.2; format: physicochemical
Source text: The photochemical and photophysical properties were investigated in a simulated physiological buffer (KMOPS, pH 7.2) and compared with the literature data for CyHQ-O-DA (Table 1). […] For this derivative, 10% CH3CN in the buffer was used to ensure complete solubilization for the photochemistry experiments. The spontaneous hydrolysis in the dark was monitored over a period of 7 days and no significant hydrolysis was detected for any of the constructs. The molar absorptivity at the wavelength used for 1PE photolysis (ε365) ranged between 4800 and 5670 M^–1 cm^–1, in line with the values of most CyHQ-based PPGs.
The photochemical behavior of constructs 4–7c was investigated in KMOPS buffer at the concentration of 0.1 mM. Under these conditions, all compounds were soluble except for the VNA analogue 6c, which, because of the lipophilicity of the vanilloid, required 20% CH3CN for full solubilization. The stability toward hydrolysis in the dark was monitored over a week, and no significant decomposition was detected for any probe. All constructs were successfully photolyzed after light exposure, as shown in the time courses of the photolysis reactions (Figure 3). MeO-CyHQ constructs 4c, 6c, and 7c were photoactivated with excellent quantum efficiency and sensitivities, and good chemical yields were obtained by monitoring the appearance of the released bioeffector over the time course of the photoreaction (Table 1). […] We believe this effect is due to the presence of the thiophene ring, a well-known photoactive group,[51] which could act as an energy sink in the excited state and quench the photochemical reaction.

[5] = HEK 293 cells expressing TRPV1, exposure to 740 nm light, data not shown

T1 sequence (Q8NER1 whole entry): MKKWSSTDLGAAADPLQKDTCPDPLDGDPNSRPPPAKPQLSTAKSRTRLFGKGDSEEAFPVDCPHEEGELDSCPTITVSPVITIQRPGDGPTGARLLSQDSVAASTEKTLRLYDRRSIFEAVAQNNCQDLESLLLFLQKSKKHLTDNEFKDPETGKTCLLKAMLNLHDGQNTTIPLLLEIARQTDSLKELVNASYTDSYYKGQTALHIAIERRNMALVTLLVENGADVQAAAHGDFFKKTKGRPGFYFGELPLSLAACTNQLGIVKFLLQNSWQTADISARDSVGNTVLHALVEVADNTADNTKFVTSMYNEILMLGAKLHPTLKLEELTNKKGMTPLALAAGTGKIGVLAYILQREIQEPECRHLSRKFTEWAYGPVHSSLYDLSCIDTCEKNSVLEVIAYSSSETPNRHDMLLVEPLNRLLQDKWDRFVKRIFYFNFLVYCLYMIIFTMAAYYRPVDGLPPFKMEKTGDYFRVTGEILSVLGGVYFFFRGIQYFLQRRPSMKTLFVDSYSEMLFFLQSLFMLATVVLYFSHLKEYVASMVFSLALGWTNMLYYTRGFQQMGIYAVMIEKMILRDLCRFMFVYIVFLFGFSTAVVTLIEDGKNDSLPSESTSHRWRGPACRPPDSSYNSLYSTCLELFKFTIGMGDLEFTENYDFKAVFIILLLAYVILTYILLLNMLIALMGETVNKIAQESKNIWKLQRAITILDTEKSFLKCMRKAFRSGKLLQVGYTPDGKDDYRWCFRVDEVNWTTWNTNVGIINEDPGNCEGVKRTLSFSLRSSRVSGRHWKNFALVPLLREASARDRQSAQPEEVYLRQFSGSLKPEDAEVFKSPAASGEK

SMILES | ε365 [1] | λmax [1] | t90% (time required to consume 90% of the starting material) [2] | τd (time constant of spontaneous hydrolysis in buffer in the dark at room temperature) [3] | solubility ([4]; pH 7.2, aqueous buffer) | also measured
C=CCc1ccc(OCc2ccc3ccc(O)c(C#N)c3n2)c(OC)c1 [CyHQ-EG, reference compound] | – | – | – | – | – | Fluo-4 calcium response after photoactivation (2PE) (TRPV1 channels; [5]): did not induce any response
COc1cc(-c2cc(COc3cc(CCN)ccc3O)nc3c(C#N)c(O)ccc23)cc(OC)c1OC.O=C(O)C(F)(F)F [3e, 2-(3-((8-Cyano-7-hydroxy-4-(3,4,5-trimethoxyphenyl)quinolin-2-yl)methoxy)-4-hydroxyphenyl)ethan-1-aminium 2,2,2-trifluoroacetate] | 5210 M^–1 cm^–1 | 372 nm | 188.7 s | nh (No hydrolysis (<5% detected after 7 days)) | > 100 µM | –
CCCCCCCCC(=O)NCc1ccc(OCc2ccc3ccc(O)c(C#N)c3n2)c(OC)c1 [CyHQ-VNA, reference compound] | – | – | – | – | – | Fluo-4 calcium response after photoactivation (2PE) (TRPV1 channels; [5]): did not induce any response
CCCN(CCc1cccs1)[C@@H]1CCc2c(cccc2OCc2cc(OC)c3ccc(O)c(C#N)c3n2)C1 [5c, (R)-7-Hydroxy-4-methoxy-2-(((6-(propyl(2-(thiophen-2-yl)ethyl)amino)-5,6,7,8-tetrahydronaphthalen-1-yl)oxy)methyl)quinoline-8-carbonitrile] | 2300 M^–1 cm^–1 | 343 nm | 143.9 s | nh (No hydrolysis (<5% detected after 7 days)) | > 100 µM | –
Cc1cc(COc2cc(CCN)ccc2O)nc2c(C#N)c(O)ccc12.O=C(O)C(F)(F)F [3a, 2-(3-((8-Cyano-7-hydroxy-4-methylquinolin-2-yl)methoxy)-4-hydroxyphenyl)ethan-1-aminium 2,2,2-trifluoroacetate] | 5000 M^–1 cm^–1 | 365 nm | 28.0 s | nh (No hydrolysis (<5% detected after 7 days)) | – | solubility ([4]; aqueous buffer, KMOPS buffer, pH 7.2, read-out: solubility): > 100 µM
N#Cc1c(O)ccc2c(N3CCOCC3)cc(COc3cc(CCN)ccc3O)nc12.O=C(O)C(F)(F)F [3b, 2-(3-((8-Cyano-7-hydroxy-4-morpholinoquinolin-2-yl)methoxy)-4-hydroxyphenyl)ethan-1-aminium 2,2,2-trifluoroacetate] | 4900 M^–1 cm^–1 | 358 nm | 23.2 s | nh (No hydrolysis (<5% detected after 7 days)) | > 100 µM | irradiation time to complete the 1PE photolysis reaction ([2]; 365 nm): less than 1 min
C=CCc1ccc(OCc2cc(OC)c3ccc(O)c(C#N)c3n2)c(OC)c1 [7c, 2-((4-Allyl-2-methoxyphenoxy)methyl)-7-hydroxy-4-methoxyquinoline-8-carbonitrile] | 7540 M^–1 cm^–1 | 351 nm | 19.5 s | nh (No hydrolysis (<5% detected after 7 days)) | > 100 µM | Fluo-4 calcium response after photoactivation (1PE) (TRPV1 channels; HEK 293 cells expressing TRPV1, 5 μM, 500 ms pulse of 405 nm light): EG was released; Fluo-4 calcium response after photoactivation (2PE) (TRPV1 channels; HEK 293 cells expressing TRPV1, 5 μM, 500 ms pulse of 740 nm light): sufficient response
Cc1ccc(-c2cc(COc3cc(CCN)ccc3O)nc3c(C#N)c(O)ccc23)cc1.O=C(O)C(F)(F)F [3d, 2-(3-((8-Cyano-7-hydroxy-4-(p-tolyl)quinolin-2-yl)methoxy)-4-hydroxyphenyl)ethan-1-aminium 2,2,2-trifluoroacetate] | 4800 M^–1 cm^–1 | 372 nm | 76.7 s | nh (No hydrolysis (<5% detected after 7 days)) | 85 µM | solubility ([4]; pH 7.2): slightly lower solubility
CCCCCCCCC(=O)NCc1ccc(OCc2cc(OC)c3ccc(O)c(C#N)c3n2)c(OC)c1 [6c, N-(4-((8-Cyano-7-hydroxy-4-methoxyquinolin-2-yl)methoxy)-3-methoxybenzyl)nonanamide] | 3375 M^–1 cm^–1 | 341 nm | 23.1 s | nh (No hydrolysis (<5% detected after 7 days)) | 77 µM (≈ 38.9 µg/mL) | Fluo-4 calcium response after photoactivation (1PE) (TRPV1 channels; HEK 293 cells expressing TRPV1, 2.5 μM, 50 ms pulse of 405 nm light): robust response; Fluo-4 calcium response after photoactivation (2PE) (TRPV1 channels; HEK 293 cells expressing TRPV1, 5 μM, 250 ms pulse of 740 nm light): robust response
CCCCCCCCC(=O)NCc1ccc(O)c(OC)c1 [VNA, N-vanillyl-nonanoylamide, reference compound] | – | – | – | – | – | relative potency as activator of TRPV1 channels (VNA versus EG) (TRPV1 channels; inferred from concentration and pulse duration needed for release, 405 nm): more potent activator of TRPV1 channels
